Results: patent publication US8183297B2 (Taipei Veterans General Hospital, priority 2008, dated 2012)

Key:
AT/RT-CD133+ cells [1] = experiment: MTT assay of cell viability/proliferation in AT/RT-CD133+; format: cell-based, human; design: anti-cancer proliferation effect of single agent chemotherapy with addition of RV: dose or concentration left out as unconfirmed; conditions: for resistance of CD133+ to chemotherapeutic agent compared with CD133-: AT/RT cells, p<0.01
Protocol: (§1) This research followed the tenets of the Declaration of Helsinki and all samples were obtained after patients had given informed consent. Dissociated cells from the samples of brain tumors from AT/RT patients were labeled with 1 ml CD133/1 micromagnetic beads per million cells using a CD133 cell isolation kit (MACS, Miltenyi Biotec). CD133^+ cells were cultured in serum-free DMEM/F12 (GIBCO) medium supplemented with N2 supplement (R&D), 10 ng/ml human recombinant bFGF (R&D) and 10 ng/ml EGF. Gamma radiation was delivered by a Theratronic cobalt unit T-1000 (Theratronic Internation, Inc., Ottawa, Canada) at a dose rate of 1.1 Gy/min (SSD=57.5 cm). For evaluation of cell proliferation, cells were seeded on 24-well plates at a density of 2×10^4 cells/well in medium, followed by the methyl thiazol tetrazolium assay (MTT assay; Sigma-Aldrich Co.). The amount of MTT formazan product was determined using a microplate reader and an absorbance of 560 nm (SpectraMax 250, Molecular Devices, Sunnyvale, Calif., USA).

AT/RT CD133- cells = experiment: MTT assay of proliferation in AT/RT CD133-; format: cell-based, human; design: dose or concentration left out as unconfirmed; conditions: RV for 72 h
Protocol: as §1

[2] = system: AT/RT-CD133+ xenotransplant; experiment: Xenotransplanted tumorigenicity analysis of AT/RT cells in SCID mice; format: in vivo, SCID mice (BALB/c strain)
Protocol: All procedures involving animals were in accordance with the institutional animal welfare guideline of Taipei Veterans General Hospital. […] Tumor size was measured using calipers and the volume was calculated according to the formula: (length×width^2)/2 and then analyzed using Image Pro-plus software.

ATRT-CD133+ cells = experiment: Percentage of CD133-positive cells in ATRT-CD133+; format: cell-based, human; design: dose or concentration left out as unconfirmed; conditions: RV for 3 days
AT/RT-CD133+ cells [3] = experiment: Transwell migration/invasion and soft agar colony formation, AT/RT-CD133+; format: cell-based, human; design: migration/invasion: dose or concentration left out as unconfirmed; conditions: compared with IR treatment alone
Protocol: (§2) The 24-well plate Transwell® system with a polycarbonate filter membrane of 8-μm pore size (Corning, United Kingdom) was used. Cell suspensions were seeded in the upper compartment of the Transwell® chamber at a density of 1×10^5 cells in 100 μl serum-free medium. After 24 hours, the filter membrane was fixed in 4% formalin for 1 hour. The opposite surface of the filter membrane was stained with Hoechst 33342 for 3 min. The soft agar assay was performed as follows. The bottom of each well (35 mm) of a six-well culture dish was coated with 2 ml agar mixture (DMEM, 10% (v/v) FCS, 0.6% (w/v) agar). After the bottom layer solidified, 2 ml top agar-medium mixture (DMEM, 10% (v/v) FCS, 0.3% (w/v) agar) containing 2×10^4 cells was added, and dishes were incubated at 37° C. for 4 weeks. The plates were stained with 0.5 ml 0.005% Crystal Violet for 1 hour, and then the number of colonies was counted using a microscope.

AT/RT-CD133+/- cells = experiment: Apoptosis (annexin V, caspase 3, TUNEL) in AT/RT-CD133+/-; format: cell-based, human; design: apoptosis induction: dose or concentration left out as unconfirmed
Protocol: The activities of caspases-8 and -3 were determined by ELISA kit (Medical & Biological Laboratories Co., Ltd, Nagoya, Japan) and quantified by reading at 490 nm (MRX; Dynatech Laboratories, Chantilly, Va., U.S.A.). Each individual sample was analyzed in triplicate. Furthermore, apoptotic cells were identified by the terminal dUTP nick-end labeling (TUNEL) method (In situ Cell Death Detection Kit, POD, Roche Boehringer Mannheim Corp., Ind., U.S.A.). Briefly, cells with cover slips were washed with 1× phosphate-buffered saline (PBS), fixed with 4% of paraformaldehyde for 10 min, permeabilized with 0.1% of Triton X-100 for 5 min, and incubated with the TUNEL reagent provided for 1 h. Chromogenic development was then applied using 3-amino-9-ethyl-carbazole, and slides were counterstained using H&E.

[4] = system: MB-CSCs (medulloblastoma cancer stem-like cells); experiment: MTT assay of cell viability in MB-CSCs; format: cell-based, human
Protocol: Dissociated cells from the samples of medulloblastoma patients were cultured in serum-free DMEM/F12 (GIBCO) medium supplemented with N2 supplement (R&D), 10 ng/ml human recombinant bFGF (R&D) and 10 ng/ml EGF. Gamma radiation was delivered by a Theratronic cobalt unit T-1000 (Theratronic Internation, Inc., Ottawa, Canada) at a dose rate of 1.1 Gy/min (SSD=57.5 cm). For evaluation of cell proliferation, cells were seeded on 24-well plates at a density of 2×10^4 cells/well in medium, followed by the methyl thiazol tetrazolium assay (MTT assay; Sigma-Aldrich Co.).

parental MB cells = experiment: MTT assay of cell viability in parental MB cells; format: cell-based, human; conditions: 50 μM RV, serum-condition culture
Protocol: Gamma radiation was delivered by a Theratronic cobalt unit T-1000 (Theratronic Internation, Inc., Ottawa, Canada) at a dose rate of 1.1 Gy/min (SSD=57.5 cm). For evaluation of cell proliferation, cells were seeded on 24-well plates at a density of 2×10^4 cells/well in medium, followed by the methyl thiazol tetrazolium assay (MTT assay; Sigma-Aldrich Co.).

MB-CSCs = experiment: Migration/invasion and tumor colony formation, MB-CSCs; format: cell-based, human; conditions: 100 μM RV alone or combined with 2 Gy IR, compared with IR (2 Gy) alone
Protocol: as §2

iPS and ES cells = experiment: Osteogenic differentiation of iPS and ES cells (Alizarin red, real-time RT-PCR); format: cell-based
Protocol: For osteogenic induction, ES or iPS cells were cultured in DMEM-LG (Invitrogen) supplemented with 50 μg·ml^−1 ascorbate-2 phosphate, 10 nmol·L^−1 dexamethasone, and 10 mmol·L^−1 β-glycerophosphate (Sigma, St. Louis, Mo.) for 2 weeks. At the end of osteogenic induction, cells were washed twice with PBS, fixed for 10 min at room temperature with 3.7% paraformaldehyde, and stained with von Kossa stain and Alizarin red to assess osteogenic differentiation.
Real-time RT-PCR was performed as previously described. Briefly, total RNA (1 μg) of each sample was reverse-transcribed using 0.5 μg oligo dT and 200 U Superscript II RT (Invitrogen). The amplification was carried out in a total volume of 20 μl containing 0.5 μmol·L^−1 of each primer, 4 mmol·L^−1 MgCl2, 2 μl LightCycler™-FastStart DNA Master SYBR green I (Roche Molecular Systems, Alameda, Calif.) and 2 μl of 1:10 diluted cDNA. PCR reactions were prepared in duplicate and performed using the following program: 95° C. for 10 min, followed by 40 cycles of denaturation at 95° C. for 10 sec. annealing at 55° C. for 5 sec. and extension at 72° C. for 20 sec. Standard curves (cycle threshold values versus template concentration) were prepared for each target gene and for the endogenous reference gene (GAPDH) for each sample. Quantification of unknown samples was performed using LightCycler Relative Quantification Software version 3.3 (Roche).

transplanted iPS cells = experiment: In vivo osteogenic differentiation and teratoma formation of iPS cells transplanted to nude mice; design: species or system nude mice (BALB/c strain)
[5] = system: cancer-related stem cells; experiment: MTT cell viability after chemical treatment, cancer-related stem cells vs non-cancer-related stem cells; format: cell-based, human; conditions: MTT survival fraction; p<0.01
Protocol: Cells were seeded on 24-well plates at a density of 2×10^4 cells/well in medium, after post-chemical therapy 24 hours, then followed and analyzed by the MTT assay (Sigma-Aldrich Co.). The amount of MTT formazon product was determined by measuring the absorbance at 560 nm (SpectraMax 250, Molecular Devices, Sunnyvale, Calif., USA). The drugs for chemotherapy are consisted of visplatin, VP-16, doxorubicin, or paclitaxel.

Oc1ccc(/C=C/c2cc(O)cc(O)c2)cc1 [resveratrol, 3,4′,5-tri-hydroxy-trans-stilbene]
total number and growth rates of CD133+ (AT/RT-CD133+ cells [1]; 200 mM RV for 48 and 72 h): significantly decreased | morphology of spheroidlike CD133+ (AT/RT-CD133+ cells [1]; 200 mM RV, 48 h): detached from clusters and became a single suspension | reduction of viability of CD133+ (AT/RT-CD133+ cells [1]; RV 100 mM): 20-25% | anti-cancer proliferation effect of single agent chemotherapy with addition of RV (AT/RT-CD133+ cells [1]; RV added to cisplatin, VP-16, ATRT-CD133+/-): significantly improved | reduction of viability of CD133+ (AT/RT-CD133+ cells [1]; RV for 72 h): about 40% | cell viability (AT/RT-CD133+ cells [1]; RV lower than 50 mM, 24, 48, and 72 h, p>0.05): not significantly affected | proliferation and growth of CD133- (AT/RT CD133- cells): totally block | tumor formation in transplanted SCID mice ([2]; 1,000 AT/RT-CD133+ treated with 200 mM RV for 72 h, within 6 weeks after inoculation): did not form tumors | mean survival times (Kaplan-Meier) ([2]; CD133+ and 150 mM RV/IR vs untreated or only IR-treated CD133+, p<0.01): significantly prolonged | tumor volumes ([2]; CD133+ treated by RV/IR vs CD133+ or CD133+ treated with only IR, p<0.01): significantly decreased | tumor formation ([2]; RV-treated CD133- group): no tumor formation | percentage of CD133-positive cells in ATRT-CD133+ (ATRT-CD133+ cells): decrease | tumor colony formation (AT/RT-CD133+ cells [3]; 150 mM RV alone or combined with IR): significantly inhibited | migration/invasion (AT/RT-CD133+ cells [3]; RV alone or combined with IR): significantly inhibited | IR (2 Gy)-mediated apoptotic activity (AT/RT-CD133+/- cells; RV plus IR 2 Gy, TUNEL): increase | apoptosis induction (AT/RT-CD133+/- cells; RV, 72 h, annexin V, caspase 3, TUNEL): induce apoptosis | morphology of spheroid-like MB-CSCs ([4]; 100 μM RV, 48 hours): detached and became a single-suspension | treatment effect of IR-2 Gy on MB-CSCs with addition of RV ([4]; 100 μM RV, p<0.01): significantly improved | total cell number and growth rates of MB-CSCs ([4]; 150 μM RV for 48 h, p<0.001): significantly decreased | reduction of viability of MB-CSCs ([4]; RV 100 μM): 40-45% | cell viability of MB-CSC ([4]; RV lower than 50 μM, 48 hours, p>0.05): not significantly affected | cell viability of parental MB cells (parental MB cells): moderately affected | migration/invasion (MB-CSCs): significantly inhibited | tumor colony formation (MB-CSCs): significantly inhibited | calcium accumulation / mineralization (Alizarin red staining) (iPS and ES cells; 20 μmol·L^−1 resveratrol in osteogenic medium, 14 days): significantly increased | expression of Runx2, OPN and IBSP (iPS and ES cells; 20 μmol·L^−1 resveratrol, 7 or 14 days of induction, vs without resveratrol): significantly higher | expression of Oct-4, Nanog, Klf-4, and C-Myc in grafts (quantitative RT-PCR) (transplanted iPS cells; osteogenic medium-treated iPS cells, mice fed with resveratrol, six weeks): significantly suppressed | teratoma-like formation in grafts (transplanted iPS cells; osteogenic medium-treated iPS cells, resveratrol 7.5 μg/ml in drinking water, six weeks): No teratoma-like formation | expression of OPN in grafts (immunofluorescence) (transplanted iPS cells; resveratrol 7.5 μg/ml in drinking water daily, six weeks after transplantation, vs vehicle): significantly higher

COc1cccc2c1C(=O)c1c(O)c3c(c(O)c1C2=O)C[C@@](O)(C(=O)CO)C[C@@H]3O[C@H]1C[C@H](N)[C@H](O)[C@H](C)O1 [doxorubicin]
resistance of cancer-related stem cell to chemotherapeutic agent compared with non-cancer-related stem cell [5]: significantly resistant | resistance of CD133+ to chemotherapeutic agent compared with CD133- (AT/RT-CD133+ cells [1]): significantly resistant

CC(=O)O[C@H]1C(=O)[C@@]2(C)[C@H]([C@H](OC(=O)c3ccccc3)[C@]3(O)C[C@H](OC(=O)[C@H](O)[C@@H](NC(=O)c4ccccc4)c4ccccc4)C(C)=C1C3(C)C)[C@]1(OC(C)=O)CO[C@@H]1C[C@@H]2O [paclitaxel]
resistance of cancer-related stem cell to chemotherapeutic agent compared with non-cancer-related stem cell [5]: significantly resistant

COc1cc([C@@H]2c3cc4c(cc3[C@@H](O[C@@H]3O[C@@H]5CO[C@@H](C)O[C@H]5[C@H](O)[C@H]3O)[C@H]3COC(=O)[C@H]23)OCO4)cc(OC)c1O [VP16, etoposide]
resistance of cancer-related stem cell to chemotherapeutic agent compared with non-cancer-related stem cell [5]: significantly resistant | resistance of CD133+ to chemotherapeutic agent compared with CD133- (AT/RT-CD133+ cells [1]): significantly resistant

N.N.[Cl][Pt][Cl] [cisplatin]
resistance of cancer-related stem cell to chemotherapeutic agent compared with non-cancer-related stem cell [5]: significantly resistant | resistance of CD133+ to chemotherapeutic agent compared with CD133- (AT/RT-CD133+ cells [1]): significantly resistant
